Source: US20260167623A1 (NIKANG THERAPEUTICS, INC., priority 2022, published 2026)

Target: T1, CDK2 (Homo sapiens, UniProt P24941)
T1 construct: High-Throughput Measurement of Cellular Endogenous CDK2; endogenous in cells; host or cells: OVCAR3
Experiment: Inhibition of CDK2: phospho-Rb (S807/811) HTRF measurement in OVCAR3 cells, 24 h
Type: cell-based
Settings: 24 h compound treatment, read-out: pRB_OVCAR3_24h
Procedure: Inhibition of CDK2: Phospho-R^b Measurement in Cells
Phosphorylation of RB protein at S807/811 were measured using HTRF phospho-RB cellular kits (Cat #64RBS807PEG) from Cisbio.
On Day 1, OVCAR3 (CDK2 dependent cell line) cells were seeded into 96-well tissue-culture treated plates at 20,000 cells/well in 200 μL and incubated overnight at 37° C. in CO2 atmosphere. On Day 2, the cells were treated with test compounds at concentrations from 0.3 to 10,000 nM using HP D300 digital dispenser. Twenty-four hours after compound treatment, cell culture media is removed by flicking the plate and tapping the plate against clean paper towel. 30 μL 1× lysis buffer was supplemented from the kit was added to each well and the plate was incubated at room temperature on shaker for 30 min. After homogenization by pipetting up and down, 8 μL cell lysate from 96-well cell culture plate was transferred to 384-well small volume white detection plate. 2 μL premixed detection solution was added and the plate was covered with sealer. To prepare the detection solution, d2 conjugated-phospho-RB antibody and Eu-cryptate conjugated phosphor-RB antibody were diluted into detection buffer following manufacturer's instruction. Detection plates were incubated for 4 h at room temperature and read on ClarioStar (BMG Labtech) in TR-FRET mode (665 nM and 620 nM). The TR-FRET ratio (665 nM/620 nM) was plotted against the compound concentration and normalized to DMSO controls. Half maximal inhibition concentration (IC50) values were calculated with a four-parameter logistic fit using GraphPad Prism (version 8; La Jolla, CA).

Row | IC50 [nM] | Compound
1 | 500 to 2500 | Cn1nc(N2CCC(=O)NC2=O)c2ccc(C3CCN(CC4CCN(c5ccc(S(=O)(=O)N6CCC(Nc7ncc(Cl)cn7)CC6)cc5)CC4)CC3)cc21 [Example 158, 1-(6-(1-((1-(4-((4-((5-chloropyrimidin-2-yl)amino)piperidin-1-yl)sulfonyl)phenyl)piperidin-4-yl)methyl)piperidin-4-yl)-1-methyl-1H-indazol-3-yl)dihydropyrimidine-2,4(1H,3H)-dione]
2 | 1 to 100 | Cn1nc(N2CCC(=O)NC2=O)c2ccc(C3CCN(CCOc4cccc(S(=O)(=O)N5CCC(Nc6ncc(C(F)(F)F)cn6)CC5)c4)CC3)cc21 [Example 123, 1-(1-methyl-6-(1-(2-(3-((4-((5-(trifluoro-methyl)pyrimidin-2-yl)amino)piperidin-1-yl)sulfonyl)phenoxy)ethyl)piperidin-4-yl)-1H-indazol-3-yl)dihydropyrimidine-2,4(1H,3H)-dione]
3 | > 2500 | CC(C)Oc1cnc(NC2CCN(S(=O)(=O)c3cccc(N4CCC(CN5CCC(c6ccc7c(N8CCC(=O)NC8=O)nn(C)c7c6)CC5)CC4)c3)CC2)nc1 [Example 253, 1-(6-(1-((1-(3-((4-((5-isopropoxypyrimidin-2-yl)amino)piperidin-1-yl)sulfonyl)phenyl)piperidin-4-yl)methyl)piperidin-4-yl)-1-methyl-1H-indazol-3-yl)dihydropyrimidine-2,4(1H,3H)-dione]
4 | 1 to 100 | Cn1nc(N2CCC(=O)NC2=O)c2ccc(C3CCN(CC4CCN(c5cc(S(=O)(=O)N6CCC(Nc7ncc(Cl)cn7)CC6)ccc5F)CC4)CC3)cc21 [Example 140, 1-(6-(1-((1-(5-((4-((5-chloropyrimidin-2-yl)amino)piperidin-1-yl)sulfonyl)-2-fluorophenyl)piperidin-4-yl)methyl)-piperidin-4-yl)-1-methyl-1H-indazol-3-yl)dihydropyrimidine-2,4(1H,3H)-dione]
5 | 100 to 500 | Cn1nc(N2CCC(=O)NC2=O)c2ccc(C3CCN(Cc4ccc(C#Cc5cccc(S(=O)(=O)N6CCC(Nc7ncc(C(F)(F)F)cn7)CC6)c5)cc4)CC3)cc21 [Example 232, 1-(1-methyl-6-(1-(4-((3-((4-((5-(trifluoromethyl)pyrimidin-2-yl)amino)piperidin-1-yl)sulfonyl)phenyl)ethynyl)benzyl)piperidin-4-yl)-1H-indazol-3-yl)dihydropyrimidine-2,4(1H,3H)-dione]
6 | 100 to 500 | Cn1nc(N2CCC(=O)NC2=O)c2ccc(C3CCN(CC4CCN(c5cccc(S(=O)(=O)N6CCC(Nc7ncc(C(F)(F)F)cn7)CC6)c5)CC4)CC3(F)F)cc21 (stereo not shown) [Example 90, 1-(6-(3,3-difluoro-1-((1-(3-((4-((5-(trifluoromethyl)pyrimidin-2-yl)amino)-piperidin-1-yl)sulfonyl)phenyl)piperidin-4-yl)methyl)piperidin-4-yl)-1-methyl-1H-indazol-3-yl)dihydropyrimidine-2,4(1H,3H)-dione]
7 | 100 to 500 | Cn1nc(N2CCC(=O)NC2=O)c2ccc(N3CCN(CC4CCN(c5cccc(S(=O)(=O)N6CCC(Nc7ncc(Cl)cn7)CC6)c5)CC4)CC3(C)C)cc21 [Example 159, 1-(6-(4-((1-(3-((4-((5-chloropyrimidin-2-yl)amino)piperidin-1-yl)sulfonyl)phenyl)piperidin-4-yl)methyl)-2,2-dimethylpiperazin-1-yl)-1-methyl-1H-indazol-3-yl)dihydropyrimidine-2,4(1H,3H)-dione]
8 | 1 to 100 | Cn1c(=O)n(C2CCC(=O)NC2=O)c2cccc(C3CCN(Cc4cccc(S(=O)(=O)N5CCC(Nc6ncc(OC(F)F)cn6)CC5)c4)CC3)c21 (stereo not shown) [Example 128, 3-(4-(1-(3-((4-((5-(difluoromethoxy)-pyrimidin-2-yl)amino)piperidin-1-yl)sulfonyl)benzyl)piperidin-4-yl)-3-methyl-2-oxo-2,3-dihydro-1H-benzo[d]imidazol-1-yl)piperidine-2,6-dione]
9 | 100 to 500 | O=C1CCC(N2Cc3cc(N4CCN(CC5CCN(c6cccc(S(=O)(=O)N7CCC(Nc8ncc(OC(F)F)cn8)CC7)c6)CC5)CC4)c(F)cc3C2=O)C(=O)N1 (stereo not shown) [Example 106, 3-(5-(4-((1-(3-((4-((5-(difluoromethoxy)-pyrimidin-2-yl)amino)piperidin-1-yl)sulfonyl)phenyl)piperidin-4-yl)methyl)-piperazin-1-yl)-6-fluoro-1-oxoisoindolin-2-yl)piperidine-2,6-dione]
10 | 100 to 500 | Cn1nc(N2CCC(=O)NC2=O)c2ccc(C3CCN(C[C@H]4CCCN4c4cc(S(=O)(=O)N5CCC(Nc6ncc(OC(F)F)cn6)CC5)ccc4C#N)CC3)cc21 [Example 255, (R)-4-((4-((5-(difluoromethoxy)pyrimidin-2-yl)amino)piperidin-1-yl)sulfonyl)-2-(2-((4-(3-(2,4-dioxotetrahydropyrimidin-1(2H)-yl)-1-methyl-1H-indazol-6-yl)piperidin-1-yl)methyl)pyrrolidin-1-yl)benzonitrile]
11 | 500 to 2500 | Cn1c(=O)n(C2CCC(=O)NC2=O)c2cccc(C3CCN(CC4CCN(c5cc(C(F)(F)F)cc(S(=O)(=O)N6CCC(Nc7ncc(OC(F)F)cn7)CC6)c5)CC4)CC3)c21 (stereo not shown) [Example 176, 3-(4-(1-((1-(3-((4-((5-(difluoromethoxy)pyrimidin-2-yl)amino)piperidin-1-yl)sulfonyl)-5-(trifluoromethyl)phenyl)piperidin-4-yl)methyl)piperidin-4-yl)-3-methyl-2-oxo-2,3-dihydro-1H-benzo[d]imidazol-1-yl)piperidine-2,6-dione]
12 | 100 to 500 | O=C1CCC(NC(=O)c2ccc(C3CCN(CC4CCN(c5cccc(S(=O)(=O)N6CCC(Nc7ncc(C(F)(F)F)cn7)CC6)c5)CC4)CC3)cn2)C(=O)N1 (stereo not shown) [Example 225, N-(2,6-dioxopiperidin-3-yl)-5-(1-((1-(3-((4-((5-(trifluoromethyl)pyrimidin-2-yl)amino)piperidin-1-yl)sulfonyl)phenyl)piperidin-4-yl)methyl)piperidin-4-yl)picolinamide]
13 | 500 to 2500 | Cn1nc(N2CCC(=O)NC2=O)c2cc(F)c(N3CCN(CC4CCN(c5cccc(S(=O)(=O)N6CCC(Nc7ncc(Cl)cn7)CC6)c5)CC4)CC3)cc21 [Example 111, 1-(6-(4-((1-(3-((4-((5-chloropyrimidin-2-yl)amino)piperidin-1-yl)sulfonyl)phenyl)-piperidin-4-yl)methyl)piperazin-1-yl)-5-fluoro-1-methyl-1H-indazol-3-yl)dihydropyrimidine-2,4(1H,3H)-dione]
14 | 500 to 2500 | Cn1nc(N2CCC(=O)NC2=O)c2ccc(C3CCN(CC4CCN(c5cccc(S(=O)(=O)N6CCC(Nc7ncc(CC(F)(F)F)cn7)CC6)c5)CC4)CC3)cc21 [Example 243, 1-(1-methyl-6-(1-((1-(3-((4-((5-(2,2,2-trifluoroethyl)pyrimidin-2-yl)amino)piperidin-1-yl)sulfonyl)phenyl)piperidin-4-yl)methyl)piperidin-4-yl)-1H-indazol-3-yl)dihydropyrimidine-2,4(1H,3H)-dione]
15 | 100 to 500 | Cn1nc(N2CCC(=O)NC2=O)c2ccc(N3CC4CCC(C3)N4CC3CCN(c4cccc(S(=O)(=O)N5CCC(Nc6ncc(Cl)cn6)CC5)c4)CC3)cc21 [Example 114, 1-(6-(8-((1-(3-((4-((5-chloropyrimidin-2-yl)amino)piperidin-1-yl)sulfonyl)phenyl)-piperidin-4-yl)methyl)-3,8-diaza-bicyclo[3.2.1]octan-3-yl)-1-methyl-1H-indazol-3-yl)dihydropyrimidine-2,4(1H,3H)-dione]
16 | 100 to 500 | Cn1nc(N2CCC(=O)NC2=O)c2ccc(C3CCN(CC4CCCN(c5cccc(S(=O)(=O)N6CCC(Nc7ncc(Cl)cn7)CC6)c5)CC4)CC3)cc21 (stereo not shown) [Example 136, 1-(6-(1-((1-(3-((4-((5-chloropyrimidin-2-yl)amino)piperidin-1-yl)sulfonyl)phenyl)-azepan-4-yl)methyl)piperidin-4-yl)-1-methyl-1H-indazol-3-yl)dihydropyrimidine-2,4(1H,3H)-dione]
17 | 100 to 500 | O=C1CCC(N2C(=O)c3cc(F)c(N4CCN(CC5CCN(c6cccc(S(=O)(=O)N7CCC(Nc8ncc(C(F)(F)F)cn8)CC7)c6)CC5)CC4)cc3C2=O)C(=O)N1 (stereo not shown) [Example 80, 2-(2,6-dioxopiperidin-3-yl)-5-fluoro-6-(4-((1-(3-((4-((5-(trifluoromethyl)pyrimidin-2-yl)amino)piperidin-1-yl)sulfonyl)phenyl)-piperidin-4-yl)methyl)piperazin-1-yl)isoindoline-1,3-dione]
18 | > 2500 | Cn1nc(N2CCC(=O)NC2=O)c2ccc(C3CCN(CC4CCN(c5cccc(S(=O)(=O)N6CC(Nc7ncc(C(F)(F)F)cn7)C6)c5)CC4)CC3)cc21 [Example 178, 1-(1-methyl-6-(1-((1-(3-((3-((5-(trifluoromethyl)pyrimidin-2-yl)amino)azetidin-1-yl)sulfonyl)phenyl)piperidin-4-yl)methyl)piperidin-4-yl)-1H-indazol-3-yl)dihydropyrimidine-2,4(1H,3H)-dione]
19 | > 2500 | Cn1nc(N2CCC(=O)NC2=O)c2ccc(C3CCN(CC4CCN(c5cccc(S(=O)(=O)c6ccc(Nc7ncc(C(F)(F)F)cn7)cc6)c5)CC4)CC3)cc21 [Example 245, 1-(1-methyl-6-(1-((1-(3-((4-((5-(trifluoromethyl)pyrimidin-2-yl)amino)phenyl)sulfonyl)phenyl)piperidin-4-yl)methyl)piperidin-4-yl)-1H-indazol-3-yl)dihydropyrimidine-2,4(1H,3H)-dione]
